According to patent US11535594B2, “Microbiocidal picolinamide derivatives” (Syngenta Participations AG, priority 2017, dated 2022):

How the values were obtained:
[1] = tested on: Botryotinia fuckeliana (Botrytis cinerea); assay: Botryotinia fuckeliana (Botrytis cinerea) / liquid culture (gray mould); assay type: cell-based; conditions: Vogels broth, 24° C., 3-4 days after application, compared to untreated checks, read-out: disease control (inhibition of growth, photometric)
Description: Botryotinia fuckeliana (Botrytis cinerea)/Liquid Culture (Gray Mould) Conidia of the fungus from cryogenic storage are directly mixed into nutrient broth (Vogels broth). After placing a (DMSO) solution of test compound into a microtiter plate (96-well format), the nutrient broth containing the fungal spores is added. The test plates are incubated at 24° C. and the inhibition of growth is determined photometrically 3-4 days after application.

[2] = tested on: Glomerella Lagenarium (Colletotrichum lagenarium); assay: Glomerella lagenarium (Colletotrichum lagenarium) / liquid culture (anthracnose); assay type: cell-based; conditions: Colletotrichum orbiculare, PDB potato dextrose broth, 24° C., 3 to 4 days after application, compared to untreated checks, read-out: disease control (inhibition of growth, photometric)
Description: Glomerella Lagenarium (Colletotrichum lagenarium)/Liquid Culture (Anthracnose) Conidia of the fungus from cryogenic storage are directly mixed into nutrient broth (PDB potato dextrose broth). After placing a (DMSO) solution of test compound into a microtiter plate (96-well format), the nutrient broth containing the fungal spores is added. The test plates are incubated at 24° C. and the inhibition of growth is measured photometrically 3 to 4 days after application.

[3] = tested on: Mycosphaerella arachidis (Cercospora arachidicola); assay: Mycosphaerella arachidis (Cercospora arachidicola) / liquid culture (early leaf spot); assay type: cell-based; conditions: PDB potato dextrose broth, 24° C., 4-5 days after application, compared to untreated checks, read-out: disease control (inhibition of growth, photometric)
Description: Mycosphaerella arachidis (Cercospora arachidicola)/Liquid Culture (Early Leaf Spot) Conidia of the fungus from cryogenic storage are directly mixed into nutrient broth (PDB potato dextrose broth). After placing a (DMSO) solution of test compound into a microtiter plate (96-well format), the nutrient broth containing the fungal spores is added. The test plates are incubated at 24° C. and the inhibition of growth is determined photometrically 4-5 days after application.

[4] = tested on: Mycosphaerella Graminicola (Septoria tritici); assay: Mycosphaerella graminicola (Septoria tritici) / liquid culture (Septoria blotch); assay type: cell-based; conditions: Zymoseptoria tritici, PDB potato dextrose broth, 24° C., 4 to 5 days after application, compared to untreated checks, read-out: disease control (inhibition of growth, photometric)
Description: Mycosphaerella Graminicola (Septoria tritici)/Liquid Culture (Septoria Blotch) Conidia of the fungus from cryogenic storage are directly mixed into nutrient broth (PDB potato dextrose broth). After placing a (DMSO) solution of test compound into a microtiter plate (96-well format), the nutrient broth containing the fungal spores is added. The test plates are incubated at 24° C. and the inhibition of growth is determined photometrically 4 to 5 days after application.

[5] = tested on: Phaeosphaeria nodorum (Septoria nodorum); assay: Phaeosphaeria nodorum (Septoria nodorum) / wheat / leaf disc preventative (glume blotch); assay type: in vivo; conditions: Parastagonospora nodorum, foliar, 120 h, wheat leaf segments cv. Kanzler, inoculated 2 days after application, assessed 5-7 days after application, compared to untreated, read-out: disease control
Description: Phaeosphaeria nodorum (Septoria nodorum)/Wheat/Leaf Disc Preventative (Glume Blotch) Wheat leaf segments cv. Kanzler are placed on agar in a multiwell plate (24-well format) and sprayed with the formulated test compound diluted in water. The leaf disks are inoculated with a spore suspension of the fungus 2 days after application. The inoculated test leaf disks are incubated at 20° C. and 75% rh under a light regime of 12 h light/12 h darkness in a climate cabinet and the activity of a compound is assessed as percent disease control compared to untreated when an appropriate level of disease damage appears in untreated check leaf disks (5-7 days after application).

[6] = tested on: Puccinia Recondite f. Sp. Tritici; assay: Puccinia recondita f. sp. tritici / wheat / leaf disc preventative (brown rust); assay type: in vivo; conditions: foliar, wheat leaf segments cv. Kanzler, inoculated 1 day after application, assessed 7-9 days after application, compared to untreated, read-out: disease control
Description: Puccinia Recondite f. Sp. Tritici/Wheat/Leaf Disc Preventative (Brown Rust) Wheat leaf segments cv. Kanzler are placed on agar in multiwell plates (24-well format) and sprayed with the formulated test compound diluted in water. The leaf disks are inoculated with a spore suspension of the fungus 1 day after application. The inoculated leaf segments are incubated at 19° C. and 75% rh under a light regime of 12 h light/12 h darkness in a climate cabinet and the activity of a compound is assessed as percent disease control compared to untreated when an appropriate level of disease damage appears in untreated check leaf segments (7-9 days after application).

[7] = tested on: Monographella nivalis (Microdochium nivale); assay: Monographella nivalis (Microdochium nivale) / liquid culture (foot rot cereals); assay type: cell-based; conditions: PDB potato dextrose broth, 24° C., 4-5 days after application, compared to untreated checks, read-out: disease control (inhibition of growth, photometric)
Description: Monographella nivalis (Microdochium nivale)/Liquid Culture (Foot Rot Cereals) Conidia of the fungus from cryogenic storage are directly mixed into nutrient broth (PDB potato dextrose broth). After placing a (DMSO) solution of test compound into a microtiter plate (96-well format), the nutrient broth containing the fungal spores is added. The test plates are incubated at 24° C. and the inhibition of growth is determined photometrically 4-5 days after application.

[8] = tested on: Magnaporthe grisea (Pyricularia oryzae); assay: whole plant or invertebrate; assay type: in vivo; conditions: foliar, read-out: disease control

COc1ccc(C(c2ccc(OC)cc2)N(C)OC(=O)[C@H](C)NC(=O)c2nccc(OC)c2O)cc1 [I.ab.01, [bis(4-methoxy phenyl)methyl-methyl-amino] (2S)-2-[(3-hydroxy-4-methoxy-pyridine-2-carbonyl)amino]propanoate]
≥ 80%: inhibition at 200 ppm [1] | inhibition at 200 ppm [2] | inhibition at 200 ppm [3] | inhibition at 200 ppm [4] | pest or weed control at 200 ppm [5] | pest or weed control at 200 ppm [6]

CCOc1ccc(C(c2ccc(OCC)cc2)N(C)OC(=O)[C@H](C)NC(=O)c2nccc(OC)c2O)cc1 [I.ac.01, [bis(4-ethoxy phenyl)methyl-methyl-amino] (2S)-2-[(3-hydroxy-4-methoxy-pyridine-2-carbonyl)amino]propanoate]
≥ 80%: inhibition at 200 ppm [1] | inhibition at 200 ppm [2] | inhibition at 200 ppm [7] | inhibition at 200 ppm [3] | inhibition at 200 ppm [4] | pest or weed control at 200 ppm [5] | pest or weed control at 200 ppm [6]

COc1ccnc(C(=O)N[C@@H](C)C(=O)ON(C)C(c2ccccc2)c2ccccc2)c1O [I.m.01, [benzhydryl(methyl)amino] (2S)-2-[(3-hydroxy-4-methoxy-pyridine-2-carbonyl)amino]propanoate]
≥ 80%: inhibition at 200 ppm [1] | inhibition at 200 ppm [2] | pest or weed control at 200 ppm [8] | inhibition at 200 ppm [7] | inhibition at 200 ppm [3] | inhibition at 200 ppm [4] | pest or weed control at 200 ppm [5] | pest or weed control at 200 ppm [6]

CCC(c1ccccc1)(c1ccccc1)N(C)OC(=O)[C@H](C)NC(=O)c1nccc(OC)c1O [I.m.03, [1,1-diphenylpropyl (methyl)amino] (2S)-2-[(3-hydroxy-4-methoxy-pyridine-2-carbonyl)amino]propanoate]
≥ 80%: inhibition at 200 ppm [1] | inhibition at 200 ppm [7] | inhibition at 200 ppm [3] | inhibition at 200 ppm [4] | pest or weed control at 200 ppm [5]

COc1ccnc(C(=O)N[C@@H](C)C(=O)ON(C)C(c2ccc(F)cc2)c2ccc(F)cc2)c1O [I.s.01, [bis(4-fluorophenyl)methyl-methyl-amino] (2S)-2-[(3-hydroxy-4-methoxy-pyridine-2-carbonyl)amino]propanoate]
≥ 80%: inhibition at 200 ppm [2] | pest or weed control at 200 ppm [8] | inhibition at 200 ppm [7] | inhibition at 200 ppm [3] | inhibition at 200 ppm [4] | pest or weed control at 200 ppm [5] | pest or weed control at 200 ppm [6]

COc1ccnc(C(=O)N[C@@H](C)C(=O)ON(C)C(C)(c2ccc(F)cc2)c2ccc(F)cc2)c1O [I.s.02, [1,1-bis(4-fluorophenyl)ethyl-methyl-amino] (2S)-2-[(3-hydroxy-4-methoxy-pyridine-2-carbonyl)amino] propanoate]
≥ 80%: inhibition at 200 ppm [1] | inhibition at 200 ppm [2] | pest or weed control at 200 ppm [8] | inhibition at 200 ppm [3] | inhibition at 200 ppm [4] | pest or weed control at 200 ppm [5]

COc1ccnc(C(=O)N[C@@H](C)C(=O)ON(C)C(c2ccc(F)cc2)c2ccc(Cl)cc2)c1O (stereo partly drawn) [I.t.01, [[(4-chlorophenyl)-(4-fluorophenyl)methyl]-methyl-amino] (2S)-2-[(3-hydroxy-4-methoxy-pyridine-2-carbonyl)amino] propanoate]
≥ 80%: inhibition at 200 ppm [1] | inhibition at 200 ppm [2] | inhibition at 200 ppm [3] | pest or weed control at 200 ppm [5] | pest or weed control at 200 ppm [6]

COc1ccnc(C(=O)N[C@@H](C)C(=O)ON(C)C(C)(c2ccc(Cl)cc2)c2ccc(Cl)cc2)c1O [I.u.02, [1,1-bis(4-chlorophenyl)ethyl-methyl-amino] (2S)-2-[(3-hydroxy-4-methoxy-pyridine-2-carbonyl)amino]propanoate]
≥ 80%: inhibition at 200 ppm [1] | inhibition at 200 ppm [2] | inhibition at 200 ppm [7] | inhibition at 200 ppm [3] | inhibition at 200 ppm [4] | pest or weed control at 200 ppm [5]

COc1ccnc(C(=O)N[C@@H](C)C(=O)ON(C)C(C)(c2ccc(Cl)cc2)c2ccc(Cl)cc2)c1OC(C)=O [I.u.14, [1,1-bis(4-chlorophenyl)ethyl-methyl-amino] (2S)-2-[(3-acetoxy-4-methoxy-pyridine-2-carbonyl)amino]propanoate]
≥ 80%: inhibition at 200 ppm [1] | inhibition at 200 ppm [2] | pest or weed control at 200 ppm [8] | inhibition at 200 ppm [7] | inhibition at 200 ppm [3] | inhibition at 200 ppm [4] | pest or weed control at 200 ppm [5] | pest or weed control at 200 ppm [6]

COc1ccnc(C(=O)N[C@@H](C)C(=O)ON(C)C(C)(c2ccc(Cl)cc2)c2ccc(Cl)cc2)c1OCOC(=O)C(C)C [I.u.26, [2-[[(1S)-2-[1,1-bis(4-chlorophenyl)ethyl-methyl-amino]oxy-1-methyl-2-oxo-ethyl]carbamoyl]-4-methoxy-3-pyridyl] oxymethyl 2-methylpropanoate]
≥ 80%: inhibition at 200 ppm [1] | inhibition at 200 ppm [7] | inhibition at 200 ppm [3] | inhibition at 200 ppm [4] | pest or weed control at 200 ppm [6]

COc1ccnc(C(=O)N[C@@H](C)C(=O)ON(C)C(c2ccc(C)cc2)c2ccc(C)cc2)c1O [I.v.01, [bis-p-tolylmethyl (methyl)amino] (2S)-2-[(3-hydroxy-4-methoxy-pyridine-2-carbonyl)amino]propanoate]
≥ 80%: inhibition at 200 ppm [1] | inhibition at 200 ppm [2] | inhibition at 200 ppm [7] | inhibition at 200 ppm [3] | inhibition at 200 ppm [4] | pest or weed control at 200 ppm [6]
